# Data published in PubChem BioAssay AID624491 (Broad Institute, 2012).
# Test system: D54 ERlucT glycosylation luciferase reporter, luminescence, 24 h
# Assay: blockers of NLG process in reporter cells – D54 ERlucT cells, luminescence, cherry-picks, dose response (AID 624491);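 further: signal gain reflects blocked N-linked glycosylation of a luciferase reporter; actives raise luciferase signal so AC26 marks activators of the reporter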
row,Structure (SMILES),AC26
1,COc1ccc(-c2nc(C(N)=O)c3[nH]c(=O)n(-c4cccc(Cl)c4)c3n2)cc1OC,5880 nM
2,c1ccc(-c2n[nH]c(-c3ccccc3)c2-c2nc3ccccc3[nH]2)cc1,4360 nM
3,Clc1ccc(C2=Nn3c(nnc3-c3cc(-c4ccccc4)n[nH]3)SC2)cc1,5130 nM
4,Oc1ccc(-c2csc(-c3c[nH]c4ccccc34)n2)c(O)c1,3410 nM
5,O=C1[C@H]2[C@@H](c3ccc(F)cc3)N3C(=O)N(c4cccc(Cl)c4)C(=O)[C@@]3(Cc3ccccc3)[C@H]2C(=O)N1C1CCCCC1,16.4 nM
6,COc1cc2c(cc1OC)C(=O)N1[C@H]3c4cc(C)ccc4OC[C@@H]3[C@H](c3ccccc3)[C@]1(C)C(=O)N2,387 nM
7,COc1ccc2cc(C)c3nnc(SCC(=O)Nc4nc(-c5ccc(F)cc5)cs4)n3c2c1,2360 nM
8,CCOc1ccc(N2CCc3c(C)nc(SC)nc32)cc1,2650 nM
9,CCc1ccc(OCC(=O)Nc2ccc(-c3cc4ccccc4oc3=O)c(OC)c2)cc1,3090 nM
10,O=c1cc(N/N=C/c2ccccc2)[nH]c(=O)[nH]1,14400 nM
11,COc1cc(C2C(C#N)=C(N)Oc3cc(O)ccc32)cc(OC)c1OC (centres undefined),1020 nM
12,CC(CC(=O)Nc1ccc2c(c1)c(=O)n(C)n2-c1cccs1)c1ccccc1 (centres undefined),6270 nM
13,COC(=O)[C@@H]1C[C@H]1[C@@H](NP(=O)(c1ccccc1)c1ccccc1)c1ccccc1,3650 nM
14,COc1cccc(N2CCN(C(=O)c3ccc(CS(=O)c4ccc(Cl)cc4)o3)CC2)c1 (centres undefined),234 nM
15,Cn1cccc1/C=C1\SC(=Nc2cccc(O)c2)NC1=O,2850 nM
16,Cn1c(=O)c([N+](=O)[O-])c(-n2ccnc2)c2ccccc21,4170 nM
17,CCOC(=O)[C@H]1[C@H]2COc3ccc(OC)cc3[C@@H]2N2C(=O)c3cc(OC)c(OC)cc3NC(=O)[C@@]12C,300 nM
18,COc1ccc(Sc2nnc(Cc3ccccc3)c3ccccc23)cc1,2880 nM
19,Cc1cc(NS(=O)(=O)c2ccc(NC(=O)COc3c(C)cc(Br)cc3C)cc2)no1,550 nM
20,COc1cc(NC(=O)NCc2ccco2)ccc1-c1ccc(NC(=O)NCc2ccco2)cc1OC,4350 nM
21,COc1ccc(-n2c(C)cc(C(=O)CCl)c2C)cc1,3980 nM
22,CN1C(=O)CSc2ccc(NC(=O)Nc3ccccn3)cc21,4260 nM
23,O=C(NCCN1C(=O)S/C(=C\c2ccccc2F)C1=O)C1=COCCO1,52.9 nM
24,COc1cc(/C=C/C(=O)OCC(=O)NCc2ccc(F)cc2)ccc1O,1590 nM
25,COc1ccc2nc(C)cc(Nc3ccc(N4CCN(C)CC4)cc3)c2c1,694 nM

row,Structure (SMILES),AC26
1,Cc1nc(N=C(N)N)nc2c(C)cccc12,2200 nM
2,CN(C)/N=C/c1ccc(Sc2ccc([N+](=O)[O-])cc2[N+](=O)[O-])o1,1880 nM
3,CCOc1ncccc1C(=O)Nc1cc2c(cc1Br)OCCO2,7780 nM
4,COc1ccc(-c2nnc(SCC(=O)Nc3ncc(C)s3)n2-c2ccccc2)cc1OC,1050 nM
5,CC(=O)Nc1cccc(-c2ccnc3c2CC(C)(C(=O)Nc2cccc(C(C)=O)c2)O3)c1 (centres undefined),9480 nM
6,COc1ccc2c(c1)[C@H]1[C@H](CO2)[C@H](c2ccccc2)[C@]2(C)C(=O)Nc3ccc(F)cc3C(=O)N12,568 nM
7,COc1cc(C#Cc2ccc3cc(CCCO)oc(=O)c3c2)cc(OC)c1,161 nM
8,Nc1nc(CN2CCN(Cc3ccccc3)CC2)nc(Nc2ccc3c(c2)OCCO3)n1,699 nM
9,Cc1ccc(C(=O)c2coc3c2C(=O)C(=O)c2ccccc2-3)cc1,4630 nM
10,Cc1ccc(C2=NN(C(=O)CSc3nccn3C)C(c3ccco3)C2)cc1 (centres undefined),6070 nM
11,N#Cc1c(N)n(CCc2ccc(F)cc2)c2nc3ccccc3nc12,1590 nM
12,c1ccc(-c2nc(-n3ccnc3)nc(-n3ccnc3)n2)cc1,2780 nM
13,COc1ccc(/C=C/C(=O)c2ccc(Cl)s2)cc1O,4730 nM
14,O=C(COC(=O)c1cccc(Br)c1)Nc1cccc2c1C(=O)c1ccccc1C2=O,4290 nM
15,C=CCNc1nc(Nc2ccc(OC)c(OC)c2)c2sc(-c3ccccc3)cc2n1,513 nM
16,CC(=O)Nc1cccc(-c2ccnc3c2CC(C)(C(=O)NCCc2ccccc2)O3)c1 (centres undefined),1370 nM
17,Cc1ccc(-c2nc(NCCN(C)C)c3ccccc3n2)cc1,4940 nM
18,CCCn1nc(C(=O)N2CC(=O)Nc3ccccc32)c2ccccc2c1=O,4890 nM
19,Cc1cnc(C(=O)Nc2ccc(OC(F)(F)F)cc2)cn1,9150 nM
20,CCc1ccc(CNC(=O)Cc2ccc(NC(=O)C3=C(C)OCCS3)cc2)cc1,352 nM
21,COc1ccc2c(c1)[C@H]1[C@H](CO2)[C@H](c2ccccc2)[C@]2(C)C(=O)Nc3cc(C)ccc3C(=O)N12,51.9 nM
22,Cc1ccc(S(=O)(=O)N(C)C[C@H]2Oc3ccc(NC(=O)C4CCCCC4)cc3C(=O)N([C@H](C)CO)C[C@H]2C)cc1,1140 nM
23,COc1cc(-c2nnc(SCC3(c4ccc(Br)cc4)OCCO3)o2)cc(OC)c1OC,210 nM
24,COc1cc(C)cc(C(=O)C=Cc2ccccc2)c1O,4920 nM
25,CCC(Cc1ccccc1)NC(=O)c1ccc2nc(N3CCOCC3)sc2c1 (centres undefined),1250 nM

row,Structure (SMILES),AC26
1,O=C(NC(=C(Cl)Cl)S(=O)(=O)c1ccc(Cl)cc1)c1ccccc1,594 nM
2,c1cc2c3c(cccc3c1)C(N1CCCCC1)=N2,13700 nM
3,COc1ccc(OC)c(-c2cc(-c3cccnc3)nc(N)c2C#N)c1,2230 nM
4,Cc1cccc(C(=O)Nc2cc(S(=O)(=O)N3CCOCC3)ccc2N2CCCC2)c1,173 nM
5,COc1ccc(C(=O)/C=C2/C(=O)Nc3ccccc32)cc1OC,714 nM
6,O=C(N/N=C/c1ccco1)c1ccccc1OCc1ccccc1Cl,1010 nM
7,COC(=O)Nc1nc2ccc(-c3n[nH]c(=O)c4ccccc34)cc2[nH]1,3350 nM
8,Cc1cc(C)nc(/N=C(\N)Nc2ccc(CC(=O)OC(C)C)cc2)n1,5890 nM
9,COc1ccc(Nc2c3ccccc3nc3ccccc23)cc1,1020 nM
10,CC(=O)O[C@H]1C(=O)[C@@]2(C)C([C@H](OC(=O)c3ccccc3)[C@]3(O)C[C@H](O)C(C)=C1C3(C)C)[C@]1(OC(C)=O)CO[C@@H]1C[C@H]2O (some centres undefined),6460 nM
11,COc1ccc(-c2[nH]nc(-c3ccccc3)c2-c2nc3ccccc3[nH]2)cc1,3900 nM
12,Cn1c(=O)[nH]c(=O)c2c1nc(N1CCN(Cc3ccccc3)CC1)n2CCCc1ccccc1,436 nM
13,COc1cc(COCC(O)CN2CCN(CCN3C(=O)c4cccc5cccc(c45)C3=O)CC2)cc(OC)c1OC (centres undefined),1230 nM
14,Cc1cc(C)nc(SC2=CS(=O)(=O)c3ccccc32)n1,4210 nM
15,CN(C)CCCN1C(=O)c2cccc3c([N+](=O)[O-])ccc(c23)C1=O,169 nM
16,O=C1[C@H]2[C@@H](c3ccc(F)cc3)N3C(=O)N(c4cccc(Br)c4)C(=O)[C@@]3(Cc3ccccc3)[C@H]2C(=O)N1C1CCCCC1,114 nM
17,C=CCN1c2ccccc2[C@]23C[C@@H](C(=O)OC)N(C(=O)c4ccc(Br)cc4)C2=NC(C(=O)OC)=C(C(=O)OC)[C@H]13,6060 nM
18,O=C1[C@@H]2Cc3c([nH]c4ccccc34)C(c3ccc([N+](=O)[O-])cc3)N2C(=O)CN1C1CC1 (some centres undefined),11500 nM
19,O=C(Nc1ccc(S(=O)(=O)N2CCOCC2)cc1)c1cc(-c2cc(Cl)ccc2O)n[nH]1,1260 nM
20,CC(C)c1ccc(/C=N/NC(=O)c2ccccc2Cl)cc1,1910 nM
21,COC(=O)Nc1nc(C)c(C(=O)c2ccccc2)s1,7950 nM
22,Cc1ccc(C=Nc2ccccc2C(N)=O)cc1,2520 nM
23,COc1ccc(Cl)cc1NC(=O)CN(C)CC(=O)Nc1ccccc1N1CCOCC1,658 nM
24,COc1ccc(CCn2c(Br)nc3c2c(=O)[nH]c(=O)n3C)cc1,1080 nM
